Columns and labels:
Format in all cases: cell-based
CAL33 cells [1] = assay: MTS cell viability assay, CAL33
Experimental: A Cell Titer 96 AQueous One Solution Cell Proliferation Assay (Promega) was used for MTS assays following the manufacturer's protocol. […] MTS was added, cells were incubated for two hours, and absorbance was measured at 490 nm using iMark™ Microplate Absorbance Reader (Bio-Rad). Graphs display percent cell viability relative to the DMSO-treated control sample. EC50 values were determined using GraphPad Prism 8.

LK2 cells = assay: Colony formation assay, LK2
Experimental: (§1) Crystal violet assays were used to assess relative cell growth and survival after treatment with specific compounds. In general, cells were plated in triplicate in 12-well plates for 24 hours before drug treatments were added using 10% FBS media. The plates were incubated for 14 days, with the media and drug being replaced every 48 hours. The cells were then washed with phosphate-buffered saline and fixed in ice-cold methanol before being stained with 0.5% crystal violet (Sigma-Aldrich) in 25% methanol. Images were taken using a ChemiDoc MP Imaging System (Bio Rad), and for quantification, the crystal violet stain was dissolved in 33% acetic acid, incubated for 20 minutes with shaking, and read at 595 nm using iMark™ Microplate Absorbance Reader (Bio-Rad). Graphs display percent colony formation relative to the DMSO-treated control sample.

CAL33 cells [2] = assay: Colony formation assay, CAL33
Experimental: as §1

LZK = biological target: T1, LZK (Homo sapiens, UniProt O43283); assay: LZK inhibition in cells monitored by downstream JNK phosphorylation (dox-induced LZK); set-up: V5 (named only in the vector); expressed in transfected cells; host or cells: CAL33 HNSCC cells, lentiviral T-REx system, induced with doxycycline; conditions: for duration of JNK pathway inactivation / time at which LZK activity toward JNK was inhibited: 250 nM; for LZK inhibition in cells, measured by inhibition of downstream JNK pathway activation: dox-inducible LZK in CAL33 cells
T1 sequence (O43283 1-966): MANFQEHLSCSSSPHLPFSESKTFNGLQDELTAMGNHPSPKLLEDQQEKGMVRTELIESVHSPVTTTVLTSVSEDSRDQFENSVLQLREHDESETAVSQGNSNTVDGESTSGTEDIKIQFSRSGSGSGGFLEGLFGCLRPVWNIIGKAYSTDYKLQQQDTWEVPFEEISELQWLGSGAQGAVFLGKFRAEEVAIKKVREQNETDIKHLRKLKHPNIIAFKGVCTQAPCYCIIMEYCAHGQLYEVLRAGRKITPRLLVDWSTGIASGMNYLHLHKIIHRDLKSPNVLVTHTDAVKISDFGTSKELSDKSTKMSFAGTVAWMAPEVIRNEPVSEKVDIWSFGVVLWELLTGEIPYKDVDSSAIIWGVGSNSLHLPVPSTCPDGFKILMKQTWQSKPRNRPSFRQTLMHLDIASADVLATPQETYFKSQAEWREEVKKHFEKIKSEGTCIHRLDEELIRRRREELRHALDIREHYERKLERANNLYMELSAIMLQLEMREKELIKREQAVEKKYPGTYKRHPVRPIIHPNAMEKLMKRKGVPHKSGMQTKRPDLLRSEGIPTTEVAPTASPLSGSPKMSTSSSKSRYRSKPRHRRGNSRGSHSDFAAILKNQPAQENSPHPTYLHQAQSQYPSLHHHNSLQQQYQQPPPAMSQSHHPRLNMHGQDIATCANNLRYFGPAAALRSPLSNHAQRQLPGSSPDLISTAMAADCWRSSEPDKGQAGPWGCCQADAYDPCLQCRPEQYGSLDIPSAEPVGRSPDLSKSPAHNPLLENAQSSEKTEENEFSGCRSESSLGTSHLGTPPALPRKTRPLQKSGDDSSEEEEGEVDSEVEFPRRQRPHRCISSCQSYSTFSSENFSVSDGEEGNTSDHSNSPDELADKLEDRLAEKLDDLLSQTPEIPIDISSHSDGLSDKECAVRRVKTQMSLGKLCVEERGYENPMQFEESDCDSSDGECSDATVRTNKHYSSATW
Excerpt: The ViraPower HiPerform T-REx Gateway Expression System (Invitrogen) was used to generate cells with tetracycline-inducible expression of LZK. In brief, wild-type (WT) or drug-resistant mutant (Q240S) LZK (cloned into pLenti6.3/TO/V5-DEST vector) and pLenti3.3/TR (for tetracycline repressor expression) were transfected into 293FT cells using Lipofectamine 2000 to generate lentiviral stock. Cell lines were generated by antibiotic selection (blasticidin [Gibco] and geneticin [Gibco]). Doxycycline (Sigma-Aldrich) was used at 1 μg/mL to induce LZK expression.
Generally, cells were plated in six-well or 35-mm plates for 24 hours, after which doxycycline was added or treatment with specific inhibitor was administered using […] for 48 hours. After appropriate treatment time, cells were washed with ice-cold phosphate-buffered saline without Ca and Mg (Quality Biological) and then lysed on ice with RIPA buffer (50 mM NaCl, 1.0% o IGEPAL® CA-630, 0.5% o sodium deoxycholate, 0.10% SDS, 50 mM Tris, pH 8.0) (Sigma-Aldrich) supplemented with protease inhibitor tablet (Sigma-Aldrich) and phosphatase inhibitor cocktails 2 and 3 (Sigma-Aldrich) followed by centrifugation at 15,000 rpm for 10 minutes at 4° C. Protein concentrations were determined from the cell lysate by using 660 nm Protein Assay Reagent (Pierce). Cell extracts were denatured, subjected to SDS-PAGE, transferred to PVDF membranes (Bio-Rad) and blocked for 2 hours using 5 bovine serum albumin (BSA) in phosphate-buffered saline and 0.10 Tween® 20 (PBS-T). The membranes were incubated with the specific antibodies overnight in […] at 4° C. followed by a 1 hour incubation with the appropriate horseradish peroxidase-conjugated secondary antibodies and signal was detected by chemiluminescence (Thermo Fisher).
A PathScan® Phospho-SAPK/JNK (Thr183/Tyr185) Sandwich ELISA Assay (Cell Signaling Technology) was used for ELISA assays following the manufacturer's protocol. In general, 500,000 cells were plated and treated with doxycycline the following day where appropriate and incubated at 37° C. for 48 hours. Cells were treated with the drug compound or control in 5% FBS media for 1 hour. After appropriate treatment time, cells were lysed on ice with 1x Cell Lysis Buffer (Cell Signaling Technology) supplemented with phosphatase and protease inhibitors (Sigma). Each diluted cell lysate was added to Phospho-SAPK/JNK (Thr183/Tyr185)Rabbit mAb Coated microwells in triplicate and incubated overnight at 4° C. Samples were treated with the following antibodies and incubated at 37° C. for 1 hour and 30 minutes, respectively: Detection Antibody and HRP-Linked secondary antibody. Samples were washed between treatments using 1× Wash Buffer according to the manufacturer's protocol. TMB substrate was added to each well and incubated at 37° C. for 10 minutes. Following this, STOPsolution was added to each well and absorbance was measured at 450 nm using iMark™ Microplate Absorbance Reader (Bio-Rad). Graphs display relative phospho-JNK levels.

NCI-H520 cells = assay: Colony formation assay, NCI-H520
Experimental: as §1

BICR56 cells = assay: Colony formation assay, BICR56
Experimental: as §1

[3] = LZK inhibitor 2, concentration not stated

How did the short-term cell viability (CAL33 cells [1]) turn out when `Cc1ncsc1-c1ccc([C@H](C)NC(=O)[C@@H]2C[C@@H](O)CN2C(=O)[C@@H](NC(=O)CCCCCCC(=O)N2CCC(c3cc(Nc4cc(C#N)ccn4)nc(N4CCC(F)(F)C4)c3)CC2)C(C)(C)C)cc1` [Compound 3] was run?
The short-term cell viability was “reduced”.

What about the LSCC cell growth (LK2 cells; 2.5 μM) of the same molecule?
Its LSCC cell growth is “significantly decreased LSCC cell growth”.

And the clonogenic growth (CAL33 cells [2]; 1 μM for 14 days)?
The clonogenic growth was “significant decreases in clonogenic growth”.

What about the colony formation (CAL33 cells [2]; 2.5 μM) of the same molecule?
The colony formation was “almost complete loss of colony formation”.

What about the “JNK signaling inhibition by targeted degraders” value (LZK; CAL33 cells induced with doxycycline, 0-10 μM) of the same molecule?
Its value is “inhibited JNK signaling”.

What about the LSCC cell growth (NCI-H520 cells; 2.5 μM) of the same molecule?
Its LSCC cell growth is “significantly decreased LSCC cell growth”.

And the clonogenic growth (BICR56 cells; 1 μM for 14 days)?
Its clonogenic growth is “significant decreases in clonogenic growth”.

What about the colony formation (BICR56 cells; 2.5 μM) of the same molecule?
The colony formation was “almost complete loss of colony formation”.

`N#Cc1ccnc(Nc2cc(C3CCN(C4COC4)CC3)cc(N3CCC(F)(F)C3)n2)c1` [GNE-3511] was tested. Which IC50 (CAL33 cells [1]; Homo sapiens, CAL-33, 72 hours, read-out: IC50, viability in short-term MTS assay) did it give?
The IC50 was 688 ± 114 nM.

What about the “reduction in colony formation” value (LK2 cells; 500 nM) of the same molecule?
The value was 45%.

What about the “reduction in colony formation” value (CAL33 cells [2]; 200 nM, 14 days) of the same molecule?
Its value is ≥ 80%.

And the “LZK activity, as monitored by downstream JNK phosphorylation” value (LZK; 100 nM to 5 μM at 1 hour)?
Its value is “inhibited LZK activity”.

What about the “duration of JNK pathway inactivation” value (LZK) of the same molecule?
The value was “up to 72 hours”.

And the “time at which LZK activity toward JNK was inhibited” value (LZK)?
The value was ≤ 15 min.

What about the “LZK inhibition in cells, measured by inhibition of downstream JNK pathway activation” value (LZK) of the same molecule?
Its value is “potent LZK inhibitor in cells”.

And the “reduction in colony formation” value (NCI-H520 cells; 500 nM)?
Its value is 55%.

And the “reduction in colony formation” value (BICR56 cells; 200 nM, 14 days)?
Its value is ≥ 80%.

Which results are given for `CC(=O)N1CCC(c2cc(Nc3cc(C#N)ccn3)nc(N3CCC(F)(F)C3)c2)CC1` [LZK inhibitor 2]?
rescue of drug-induced loss of viability by LZK^Q240S expression (CAL33 cells [1]; 72-hour MTS assay): rescued decreases in viability; LSCC cell growth (LK2 cells; 1 μM): significantly decreased LSCC cell growth; colony formation (CAL33 cells [2]; [3]): suppressed colony formation; duration of JNK pathway inactivation (LZK): 72 h; time at which LZK activity toward JNK was inhibited (LZK): five; concentration at which LZK activity was suppressed (LZK; 1 hour): 100 nM; LZK inhibition in cells, measured by inhibition of downstream JNK pathway activation (LZK): potent LZK inhibitor; JNK signaling inhibition compared with GNE-3511 (LZK; one hour): inhibited JNK signaling at lower concentrations than GNE-3511; LSCC cell growth (NCI-H520 cells; 1 μM): significantly decreased LSCC cell growth; colony formation (BICR56 cells; [3]): suppressed colony formation

— US20240190838A1, “LZK-TARGETING DEGRADERS AND METHODS OF USE” (The U.S.A., as represented by the Secretary, Department of …, priority 2020, published 2024)
